Values of other authors, collected in patent US12599677B2, “Targeted PH sensitive liposomes” (Northwestern University, priority 2020, dated 2026).

Structure (SMILES): C=C1CC[C@@H]2[C@](C)(CO)[C@H](O)CC[C@@]2(C)[C@@H]1C/C=C1/C(=O)OC[C@H]1O [andrographolide]
- solubility in water: low solubility in water
